Measurements published in paper PMC8948939 (Pharmaceutics, 2022).
Values joined by “and” are separate entries in the source; they are usually repeats but may differ in a detail not shown here. Equal values may be shown once. Read-outs that look alike come from different tables or passages of the source.

Columns and labels:
[1] = target: T1, CYP3A4 (Homo sapiens, UniProt P08684); assay: Michaelis-Menten kinetics of midazolam 1-hydroxylation by rhCYP3A4; format: in vitro ADME; set-up: purchased Corning Inc
Description: (§1) Towards the Elucidation of the Pharmacokinetics of
(§2) Josefine Schulz 1, Antonia Thomas 1, Ayatallah Saleh 1,2, Gerd Mikus 1,3, Charlotte Kloft 1,† and Robin Michelet 1,*,† 1 Department of Clinical Pharmacy & Biochemistry, Institute of Pharmacy, Freie Universitaet Berlin, Kelchstraße 31, 12169 Berlin, Germany
(§3) 2 Graduate Research Training Program PharMetrX, 12169 Berlin/Potsdam, Germany 3 Department of Clinical Pharmacology and Pharmacoepidemiology, University Hospital Heidelberg, Im Neuenheimer Feld 410, 69120 Heidelberg, Germany
(§4) * Correspondence: robin.michelet@fu-berlin.de; Tel.: +49-30-838-50659
(§5) † These authors contributed equally to this work
(§6) Supplementary Section S1. Marker reactions for CYP2C19, CYP2C9 and CYP3A4 […]
(§7) for CYP3A4 [1,2] were used to determine (i) intersystem extrapolation factors (ISEF), (ii) […]
(§8) (i) Experiments for the determination of Michaelis-Menten kinetics in HLM were performed at protein concentrations of 0.02, 0.04 and 0.05 mg/mL for the marker reactions of CYP2C19, CYP2C9 and CYP3A4 (n = 3 each), respectively. Two samples were taken from each incubation after 15 and 25 min for investigations on CYP2C19, after 5 and 10 min for CYP2C9 and after 7 and 12 min for CYP3A4, respectively. […]
(§9) were applied as substrate concentrations.
(§10) For investigations in rhCYP concentrations of 2.5 pmol/mL rhCYP2C19 (n = 3), […]
respectively. Sampling time points were identical to those in HLM as were substrate […]
concentration of 0.2 mg/mL for 15 and 25 min (n = 2). Each probe substrate was incubated in the presence of each inhibitor. […]
(§11) were performed at concentrations of 0.2, 0.08 and 0.05 mg/mL HLM for CYP2C19, CYP2C9 and CYP3A4, respectively. IC50 and IC50 shift assays were performed at substrate […]
Reaction times were identical to those described […]
Target sequence in this assay (P08684 whole entry): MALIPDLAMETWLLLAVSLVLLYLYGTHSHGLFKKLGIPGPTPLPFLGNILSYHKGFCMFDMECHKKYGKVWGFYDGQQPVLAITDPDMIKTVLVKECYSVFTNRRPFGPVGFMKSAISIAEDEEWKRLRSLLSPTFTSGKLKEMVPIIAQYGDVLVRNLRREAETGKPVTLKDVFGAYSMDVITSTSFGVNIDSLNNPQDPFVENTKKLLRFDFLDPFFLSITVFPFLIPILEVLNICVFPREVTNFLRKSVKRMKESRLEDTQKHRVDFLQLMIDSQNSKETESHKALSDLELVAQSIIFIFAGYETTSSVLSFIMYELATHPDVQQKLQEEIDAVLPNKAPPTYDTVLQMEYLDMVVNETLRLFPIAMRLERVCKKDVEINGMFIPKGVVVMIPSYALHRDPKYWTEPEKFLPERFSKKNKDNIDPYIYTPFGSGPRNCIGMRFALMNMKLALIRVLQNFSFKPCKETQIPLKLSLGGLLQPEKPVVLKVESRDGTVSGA

[2] = target: T2, CYP3A4 in human liver microsomes (HLM) (Homo sapiens, UniProt P08684); assay: Michaelis-Menten kinetics of midazolam 1-hydroxylation (CYP3A4 marker reaction) in HLM; format: in vitro ADME; conditions: midazolam 1-hydroxylation; HLM
T2 construct: tissue Corning Inc; host or cells: pooled human liver microsomes (150 donors)
T2 sequence (P08684 2-503 limits assumed): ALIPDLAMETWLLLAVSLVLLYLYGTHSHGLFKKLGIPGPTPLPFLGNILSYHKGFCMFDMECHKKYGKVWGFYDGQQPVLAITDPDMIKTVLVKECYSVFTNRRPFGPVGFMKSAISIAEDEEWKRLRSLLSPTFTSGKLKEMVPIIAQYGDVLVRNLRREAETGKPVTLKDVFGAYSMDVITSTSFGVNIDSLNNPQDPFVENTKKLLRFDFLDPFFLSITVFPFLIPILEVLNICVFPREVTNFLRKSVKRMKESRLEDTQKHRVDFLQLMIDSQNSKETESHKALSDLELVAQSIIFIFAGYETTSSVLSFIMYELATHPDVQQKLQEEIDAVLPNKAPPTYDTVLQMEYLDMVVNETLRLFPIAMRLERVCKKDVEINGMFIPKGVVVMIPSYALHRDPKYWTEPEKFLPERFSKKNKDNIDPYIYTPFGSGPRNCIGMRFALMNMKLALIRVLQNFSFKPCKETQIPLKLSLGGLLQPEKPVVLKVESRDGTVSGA
Description: as §1, §2, §3, §4, §5, §6, §7, §8, §9, §10
(§12) respectively. […]

[3] = target: T1, CYP3A4; assay: as above; format: in vitro ADME; set-up: tissue Corning Inc; host or cells: pooled human liver microsomes (150 donors); conditions: human, human liver microsomes
Description: as §1, §2, §3, §4, §5, §6, §7, §8, §9, §10, §12
Target sequence in this assay (P08684 2-503 limits assumed): as above

[4] = target: T3, CYP2C9 (Homo sapiens, UniProt P11712); assay: in vitro; conditions: microsomes, pH 7.5
T3 sequence (P11712 whole entry): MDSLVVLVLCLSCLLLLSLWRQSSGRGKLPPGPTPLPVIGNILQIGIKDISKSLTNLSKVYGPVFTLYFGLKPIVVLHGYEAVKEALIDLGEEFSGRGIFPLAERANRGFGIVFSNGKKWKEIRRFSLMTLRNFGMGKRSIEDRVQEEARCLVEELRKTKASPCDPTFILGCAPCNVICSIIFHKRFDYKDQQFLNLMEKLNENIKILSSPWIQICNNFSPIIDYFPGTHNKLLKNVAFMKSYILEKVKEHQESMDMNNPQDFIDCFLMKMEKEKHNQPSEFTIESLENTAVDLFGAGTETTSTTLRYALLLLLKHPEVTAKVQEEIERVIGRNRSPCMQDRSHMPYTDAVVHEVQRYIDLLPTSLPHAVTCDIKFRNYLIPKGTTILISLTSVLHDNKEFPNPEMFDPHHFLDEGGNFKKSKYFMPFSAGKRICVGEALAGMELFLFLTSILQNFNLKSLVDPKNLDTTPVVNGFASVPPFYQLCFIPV
Method: as §6, §7, §8
(§13) were applied as substrate concentrations. […]

[5] = target: CYP2C9 in human liver microsomes (HLM) (Homo sapiens, UniProt P11712); assay: in vitro; conditions: pH 7.5
Sequence of CYP2C9 in human liver microsomes (HLM) (P11712 whole entry): as above
Method: as §6, §7, §8, §13

[6] = target: T3, CYP2C9; conditions: recombinant enzyme, pH 7.5
Method: as §6, §7, §8, §9, §10, §12

[7] = system: HLM, HIM and rhCYP; assay: Pre-investigations of metabolite formation from VRC in HLM, HIM and rhCYP; format: in vitro ADME, human
Description: As an essential prerequisite, the linearity of metabolite formation with regard to reaction time and enzyme concentration, as well as the absence of substrate depletion (<10%), were investigated.

[8] = target: T4, CYP2C19 (Homo sapiens, UniProt P33261); assay: IC50 and IC50 shift on CYP2C19 marker reaction (S-mephenytoin 4-hydroxylation) in HLM; format: in vitro ADME; set-up: tissue Corning Inc; host or cells: pooled human liver microsomes (150 donors); conditions: for time dependence of inhibition: IC50 shift assay
T4 sequence (P33261 whole entry): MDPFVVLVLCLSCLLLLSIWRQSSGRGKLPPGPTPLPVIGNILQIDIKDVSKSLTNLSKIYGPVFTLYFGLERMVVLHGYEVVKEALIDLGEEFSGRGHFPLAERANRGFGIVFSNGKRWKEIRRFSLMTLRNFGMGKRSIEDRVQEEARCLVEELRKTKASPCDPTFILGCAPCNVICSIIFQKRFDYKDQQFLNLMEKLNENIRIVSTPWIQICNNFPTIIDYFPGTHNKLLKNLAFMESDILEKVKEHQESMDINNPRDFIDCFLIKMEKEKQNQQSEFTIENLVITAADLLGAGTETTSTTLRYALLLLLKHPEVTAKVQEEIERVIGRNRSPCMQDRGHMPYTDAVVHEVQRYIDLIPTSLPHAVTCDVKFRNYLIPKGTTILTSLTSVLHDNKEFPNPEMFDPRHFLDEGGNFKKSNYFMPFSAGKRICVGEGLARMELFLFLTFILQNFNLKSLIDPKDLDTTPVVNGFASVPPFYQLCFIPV
Method: (§14) Remaining activity (A, %) was calculated as the ratio of reaction velocities in the inhibited and non-inhibited incubations. IC50 and the steepness of the inhibition curve (H) were estimated by fitting the four-parameter inhibition model to the experimental data (Equation (9)). Maximum (Amax) and baseline activity (A0) were fixed to 100 and 0, respectively. […] (9) A,%=A0+Amax−A0/1+logCInhib/logIC50^H=100/1+logCInhib/logIC50^H […]
as §6, §7
(§15) Each probe substrate was incubated in the presence of each inhibitor. […]
as §11
(§16) Reaction times were identical to those described

[9] = target: T1, CYP3A4; assay: IC50 and IC50 shift on CYP3A4 marker reaction (midazolam 1-hydroxylation) in HLM; format: in vitro ADME; set-up: tissue Corning Inc; host or cells: pooled human liver microsomes (150 donors); conditions: for time dependence of inhibition: IC50 shift assay; for IC50 shift: human, human liver microsomes, pH 7.5, probe midazolam 1-hydroxylation (4.60 µM midazolam)
Method: as §14, §6, §7
Target sequence in this assay (P08684 2-503 limits assumed): as the sequence (P08684 2-503 limits assumed) above
Two samples were taken […]
from each incubation after 15 and 25 min for investigations on CYP2C19, after 5 and 10 min for CYP2C9 and after 7 and 12 min for CYP3A4, respectively. […]
CYP2C9 and CYP3A4, respectively. IC50 and IC50 shift assays were performed at substrate […]
as §16

[10] = system: human liver microsomes (HLM); assay: Metabolic stability of voriconazole N-oxide and hydroxyvoriconazole in HLM; format: in vitro ADME; conditions: HLM 0.2 mg/mL; for depletion over time when incubated directly with HLM: 5-60 min, 0.137 and 1.10 µM; for % compared to a control incubation without HLM after 60 min: high concentration (1.10 µM), single replicates
Method: An incubation without HLM served as a control (n = 1).

[11] = target: T3, CYP2C9; assay: Type of reversible inhibition and Ki on CYP2C9 (diclofenac 4-hydroxylation) in HLM; format: in vitro ADME; set-up: tissue Corning Inc; host or cells: pooled human liver microsomes (150 donors); conditions: for Type of Reversible Inhibition: CYP2C9, best model fit by AIC; for Ki: read-out: Ki (95% CI)
Method: (§17) Reaction velocities were investigated in function of the substrate ([S]) and inhibitor ([I]) concentration to determine KM, Vmax and Ki of the reaction. The obtained data were used to fit the three main models of reversible inhibition, i.e., competitive (Equation (10)), noncompetitive (Equation (11)) and uncompetitive (Equation (12)) using the “nls” function in R. The type of inhibition was determined according to the best model fit assessed with Akaike’s information criteria (AIC). […] (10) V=Vmax/1+KM/S1+I/Ki (11) V=Vmax/1+KM/S1+I/Ki (12) V=Vmax/1+KM/S+I/Ki […]
as §6, §7, §8, §13, §15, §11, §16

[12] = target: T4, CYP2C19; assay: Type of reversible inhibition and Ki on CYP2C19 (S-mephenytoin 4-hydroxylation) in HLM; format: in vitro ADME; set-up: tissue Corning Inc; host or cells: pooled human liver microsomes (150 donors); conditions: for Type of Reversible Inhibition: CYP2C19, best model fit by AIC; for inhibitory effect on CYP2C19 relative to VRC (fold lower, from Ki): compared to VRC; for Ki: read-out: Ki (95% CI)
Method: as §17, §6, §7, §8, §13, §15, §11, §16

[13] = target: T3, CYP2C9; assay: IC50 and IC50 shift on CYP2C9 marker reaction (diclofenac 4-hydroxylation) in HLM; format: in vitro ADME; set-up: tissue Corning Inc; host or cells: pooled human liver microsomes (150 donors); conditions: for time dependence of inhibition: IC50 shift assay; for IC50 shift / IC50 shift at 30 min: human, human liver microsomes; for IC50 shift: pH 7.5, probe diclofenac 4-hydroxylation (4.73 µM diclofenac); for IC50 shift at 30 min: pH 7.5, probe diclofenac (4-hydroxylation), 4.73 µM
Method: as §14
Supplementary Section S1. […]
Two samples were taken
from each incubation after 15 and 25 min for investigations on CYP2C19, after 5 and
10 min for CYP2C9 and after 7 and 12 min for CYP3A4, respectively. […]
CYP2C9 and CYP3A4, respectively. IC50 and IC50 shift assays were performed at substrate
as §16

[14] = target: T1, CYP3A4; assay: Type of reversible inhibition and Ki on CYP3A4 (midazolam 1-hydroxylation) in HLM; format: in vitro ADME; set-up: tissue Corning Inc; host or cells: pooled human liver microsomes (150 donors); conditions: for Type of Reversible Inhibition / Ki: CYP3A4; for Type of Reversible Inhibition: best model fit by AIC; for Ki: midazolam 1-hydroxylation, HLM, read-out: Ki (95% CI)
Method: as §17, §6, §7, §8, §13, §15, §11, §16
Target sequence in this assay (P08684 2-503 limits assumed): as above

[15] = cited from earlier work
[16] = target: T3, CYP2C9; set-up: tissue Corning Inc; host or cells: pooled human liver microsomes (150 donors); conditions: ref Giri et al. 84; cited from earlier work
[17] = target: T4, CYP2C19; set-up: tissue Corning Inc; host or cells: pooled human liver microsomes (150 donors); conditions: ref Hohmann et al. 42; cited from earlier work
[18] = system: CYP3A4; conditions: cited from earlier work
[19] = midazolam 1-hydroxylation, rhCYP3A4
[20] = 30 min pre-incubation in the absence of NADPH
[21] = 30 min pre-incubation in the absence of NADPH, read-out: IC50 NADPH (−) (95% Confidence Interval)
[22] = 30 min pre-incubation in the presence of NADPH
[23] = 30 min pre-incubation in the presence of NADPH, read-out: IC50 NADPH (+) (95% Confidence Interval)
[24] = without pre-incubation, […] S-mephenytoin, HLM, NO and OH–VRC estimates exceed applied concentrations (max 34.2 µM), read-out: IC50 (95% Confidence Interval)
[25] = without pre-incubation, 4.60 µM midazolam, HLM, read-out: IC50 (95% Confidence Interval)
[26] = without pre-incubation, 4.73 µM diclofenac, HLM, read-out: IC50 (95% Confidence Interval)

Structure (SMILES)	IC50 Shift NADPH (−) [8, 20]	IC50 [8, 21] [µM]	IC50 Shift NADPH (+) [8, 22]	IC50 [8, 23] [µM]	time dependence of inhibition [8]	IC50 [8, 24] [µM]	IC50 [9, 21] [µM]	IC50 [9, 23] [µM]	time dependence of inhibition [9]	IC50 shift [9, 20]	IC50 shift [9, 22]	IC50 [9, 25] [µM]	depletion over time when incubated directly with HLM [10]	% compared to a control incubation without HLM after 60 min [10]	Type of Reversible Inhibition [11]	Ki [11] [µM]	Type of Reversible Inhibition [12]	inhibitory effect on CYP2C19 relative to VRC (fold lower, from Ki) [12] [fold]	Ki [12] [µM]	IC50 [13, 21] [µM]	also measured
Cc1ncc2n1-c1ccc(Cl)cc1C(c1ccccc1F)=NC2 [Midazolam, midazolam]																					Km ([1]; human, recombinant human CYP3A4 (rhCYP3A4)): 1.96 µM; CLint, rhCYP [1, 19]: 0.850 µL/min/pmol; Vmax,rhCYP (95% CI) [1, 19]: 1.67 pmol/min∙pmol; Vmax,HLM (95% CI) [2]: 559 pmol/min/mg; Km [3]: 4.45 µM; microsomal CLint ([3]; pH 7.5, midazolam 1-hydroxylation, HLM): 126 µL/min/mg
O=C(O)Cc1ccccc1Nc1c(Cl)cccc1Cl [Diclofenac, diclofenac]																					microsomal CLint [4]: 408 µL/min/mg; Vmax,HLM (95% CI) [5]: 1693 pmol/min/mg; CLint, rhCYP [6]: 5.89 µL/min/pmol
C[C@@H](c1ncnc(O)c1F)[C@](O)(Cn1cncn1)c1ccc(F)cc1F [OH–VRC, hydroxyvoriconazole]	1.17	> 34.2	1.24	33.6	Time-independent inhibition	> 34.2	0.579	1.57	Time-independent inhibition	> 1.5	0.65	1.02	no depletion	94.7%	competitive	2.8	competitive	6.1	11.6	3.68	OH–VRC formation from VRC [7]: not observed; IC50 Shift NADPH (−) [9, 20]: 1.76; IC50 [13, 23]: 3.64 µM; time dependence of inhibition [13]: Time-independent inhibition; IC50 shift [13, 20]: 0.997; IC50 shift at 30 min [13, 22]: 1.01; IC50 [13, 26]: 3.67 µM; Type of Reversible Inhibition [14]: noncompetitive; Ki [14]: 2.53 µM; plasma concentrations, fold lower than those of NO [15]: up to 30 fold
C[C@@H](c1nc[n+]([O-])cc1F)[C@](O)(Cn1cncn1)c1ccc(F)cc1F [NO, voriconazole N-oxide]	0.641	> 34.2	0.900	> 34.2	Time-independent inhibition	> 34.2	6.96	2.91	Time-independent inhibition	0.644	> 1.5	4.48	no depletion	96.9% and 109%	competitive	5.47	noncompetitive	31	58.6	10.1	IC50 [16]: 11.2 µM; IC50 [17]: 40.2 µM; IC50 Shift NADPH (+) [9, 22]: 1.54; inhibitory effect on CYP2C9 relative to VRC (fold, from Ki) ([11]; compared to VRC): 2.1 fold; IC50 [13, 23]: 14.9 µM; time dependence of inhibition [13]: Time-independent inhibition; IC50 shift [13, 20]: 1.34; IC50 shift at 30 min [13, 22]: 0.899; IC50 [13, 26]: 13.4 µM; Type of Reversible Inhibition [14]: noncompetitive; Ki [14]: 5.24 µM; inhibitory effect on CYP3A4 relative to VRC (fold, from Ki) ([14]; compared to VRC): 1.9 fold; IC50 ([18]; ref Giri et al. 84): 8.7 µM; IC50 ([18]; ref Hohmann et al. 42): 146 µM
